Reference: PubChem BioAssay AID330 (DTP/NCI, 2004)
“And” between values parts separate entries of the source, which are not always exact repeats. Equal values may be shown once. Inconclusive results and toxic doses are left out. How the source made its calls: active means survival T/C of 150% or more; inactive means T/C below 125% in these data.

Tested on: P388 leukemia ip, CD2F1 mice, survival T/C
Assay: NCI In Vivo Anticancer Drug Screen. Data for tumor model P388 Leukemia (intraperitoneal) in CD2F1 (CDF1) mice
Conditions: endpoint: median survival time, higher = longer survival
Summary of the method: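 Mice carrying the transplanted tumor received test compound or vehicle. Survival was recorded in each group, and the value is the treated-group measurement divided by that of the vehicle-treated control group.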

[1] = dose: 100.0 mg/kg/injection, schedule: Q01DX001 (ip), vehicle: saline with Tween-80
[2] = dose: 200.0 mg/kg/injection, schedule: Q01DX001 (ip), vehicle: saline with Tween-80
[3] = dose: 400.0 mg/kg/injection, schedule: Q01DX001 (ip), vehicle: saline with Tween-80
[4] = dose: 100.0 mg/kg/injection, schedule: Q04DX003 (ip), vehicle: saline with Tween-80
[5] = dose: 200.0 mg/kg/injection, schedule: Q04DX003 (ip), vehicle: saline with Tween-80
[6] = dose: 400.0 mg/kg/injection, schedule: Q04DX003 (ip), vehicle: saline with Tween-80

Measured: T/C

CCCCn1c(Cl)c(/C=N\Nc2ccccc2[N+](=O)[O-])c2ccccc21
inactive: [1] 93 % of control | [2] 90 % of control | [3] 93 % of control

COc1ccc(NCc2ccc(C)cc2)cc1
inactive: [1] 100 % of control | [2] 108 % of control | [3] 107 % of control

CC(C)CC(N)C(=O)NC(CC(C)C)P(=O)(O)O (centres undefined)
inactive: dose: 60.0 mg/kg/injection, schedule: Q01DX005 (ip), vehicle: saline with Tween-80 106 % of control | dose: 120.0 mg/kg/injection, schedule: Q01DX005 (ip), vehicle: saline with Tween-80 101 % of control | dose: 240.0 mg/kg/injection, schedule: Q01DX005 (ip), vehicle: saline with Tween-80 104 % of control

C1CC[C@@]2([C@]34CCCC[C@H]3O4)O[C@H]2C1
inactive: dose: 60.0 mg/kg/injection, schedule: Q01DX005 (ip), vehicle: Klucel (hydroxypropylcellulose) (HPC) 99 % of control | dose: 120.0 mg/kg/injection, schedule: Q01DX005 (ip), vehicle: Klucel (hydroxypropylcellulose) (HPC) 98 % of control | dose: 240.0 mg/kg/injection, schedule: Q01DX005 (ip), vehicle: Klucel (hydroxypropylcellulose) (HPC) 95 % of control and 96 % of control

COc1ccc(Br)cc1/C=N\NS(=O)(=O)c1ccc(C)cc1
inactive: dose: 100.0 mg/kg/injection, schedule: Q01DX009 (ip), vehicle: saline with Tween-80 104 % of control | [4] 116 % of control | dose: 200.0 mg/kg/injection, schedule: Q01DX009 (ip), vehicle: saline with Tween-80 109 % of control | [5] 100 % of control | dose: 400.0 mg/kg/injection, schedule: Q01DX009 (ip), vehicle: saline with Tween-80 122 % of control | [6] 108 % of control

CC(=O)OCC1OC([Se][As](C)C)C(OC(C)=O)C(OC(C)=O)C1OC(C)=O (centres undefined)
inactive: dose: 1.56 mg/kg/injection, schedule: Q01DX009 (ip), vehicle: saline with Tween-80 95 % of control | dose: 3.13 mg/kg/injection, schedule: Q01DX009 (ip), vehicle: saline with Tween-80 95 % of control | dose: 6.25 mg/kg/injection, schedule: Q01DX009 (ip), vehicle: saline with Tween-80 99 % of control | dose: 11.0 mg/kg/injection, schedule: Q01DX009 (ip), vehicle: saline with Tween-80 104 % of control | dose: 12.5 mg/kg/injection, schedule: Q01DX009 (ip), vehicle: saline with Tween-80 99 % of control | dose: 16.6 mg/kg/injection, schedule: Q01DX009 (ip), vehicle: saline with Tween-80 110 % of control | dose: 37.5 mg/kg/injection, schedule: Q01DX009 (ip), vehicle: saline with Tween-80 119 % of control

O=C(Nc1ccc(Br)c2c(NC(=O)c3ccccc3)ccc(Br)c12)c1ccccc1
inactive: dose: 1.5 mg/kg/injection, schedule: Q01DX009 (ip), vehicle: saline with Tween-80 100 % of control | dose: 3.0 mg/kg/injection, schedule: Q01DX009 (ip), vehicle: saline with Tween-80 90 % of control | dose: 6.0 mg/kg/injection, schedule: Q01DX009 (ip), vehicle: saline with Tween-80 90 % of control

CN(C)C(=S)Oc1cc(-c2c(OC(=S)N(C)C)ccc3ccccc23)c2ccccc2c1
inactive: dose: 100.0 mg/kg/injection, schedule: Q04DX002 (ip), vehicle: saline with Tween-80 105 % of control | dose: 200.0 mg/kg/injection, schedule: Q04DX002 (ip), vehicle: saline with Tween-80 102 % of control | dose: 400.0 mg/kg/injection, schedule: Q04DX002 (ip), vehicle: saline with Tween-80 96 % of control

CC(=O)C1=C(c2ccc([N+](=O)[O-])cc2)NC(=O)NC1c1ccco1 (centres undefined)
inactive: [4] 95 % of control | [5] 100 % of control | [6] 100 % of control

O=C(O)C(=O)O.[NH2-].[NH2-].[NH2-].[NH2-].[Ru+4]
inactive: dose: 3.13 mg/kg/injection, schedule: Q04DX003 (ip), vehicle: water 110 % of control | dose: 25.0 mg/kg/injection, schedule: Q04DX003 (ip), vehicle: water 98 % of control

CN1CC1c1cc2ccccc2c2ccccc12 (centres undefined)
inactive: dose: 100.0 mg/kg/injection, schedule: Q01DX001 (ip), vehicle: suspension in saline 107 % of control | dose: 200.0 mg/kg/injection, schedule: Q01DX001 (ip), vehicle: suspension in saline 98 % of control | dose: 400.0 mg/kg/injection, schedule: Q01DX001 (ip), vehicle: suspension in saline 101 % of control
